# Assay results from ChEMBL document CHEMBL4033691, “Discovery and structure-guided fragment-linking of 4-(2,3-dichlorobenzoyl)-1-methyl-pyrrole-2-carboxamide as a pyruvate kinase M2 activator” (Bioorg Med Chem, 2017).
# Active and inactive are the calls of the source. No cut-off for these calls is given here.
# Columns and labels:
# Pyruvate kinase PKM [1] = biological target: T1, Pyruvate kinase PKM (Homo sapiens, UniProt P14618); assay: Activation of full length recombinant human N-terminal His6-tagged PKM2 expressed in Escherichia coli BL21(DE3) using PEP as substrate preincubated for 5 mins followed by substrate addition measured after 90 mins in presence of ADP by Kinase-Glo luminescence assay
# Pyruvate kinase PKM [2] = biological target: T1, Pyruvate kinase PKM; assay: Activation of full length recombinant human N-terminal His6-tagged PKM2 expressed in Escherichia coli BL21(DE3) at 10 ug/ml using PEP as substrate preincubated for 5 mins followed by substrate addition measured after 90 mins in presence of ADP by Kinase-Glo luminescence assay relative to control
# Target sequence in this assay (P14618 2-531 limits assumed): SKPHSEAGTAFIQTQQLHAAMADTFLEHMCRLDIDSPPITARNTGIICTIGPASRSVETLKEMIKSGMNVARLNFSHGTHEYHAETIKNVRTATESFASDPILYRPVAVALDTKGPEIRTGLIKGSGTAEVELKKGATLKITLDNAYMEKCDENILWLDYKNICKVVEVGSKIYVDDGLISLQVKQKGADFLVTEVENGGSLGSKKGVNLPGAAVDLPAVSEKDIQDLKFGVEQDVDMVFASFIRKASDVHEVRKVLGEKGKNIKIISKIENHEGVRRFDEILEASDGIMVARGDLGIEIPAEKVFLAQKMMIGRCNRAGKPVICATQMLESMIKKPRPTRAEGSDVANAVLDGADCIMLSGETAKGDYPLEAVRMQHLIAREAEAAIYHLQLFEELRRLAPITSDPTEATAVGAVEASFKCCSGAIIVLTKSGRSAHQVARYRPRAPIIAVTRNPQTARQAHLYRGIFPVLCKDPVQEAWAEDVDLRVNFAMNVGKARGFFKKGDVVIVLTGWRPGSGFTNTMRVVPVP
# Pyruvate kinase PKM [3] = biological target: T1, Pyruvate kinase PKM; assay: Activation of PKM2 in human A549 cells using PEP as substrate preincubated for 1 hr followed by substrate addition measured after 1 hr in presence of ADP by Kinase-Glo luminescence assay; assay type: cell-based
# Target sequence in this assay (P14618 whole entry): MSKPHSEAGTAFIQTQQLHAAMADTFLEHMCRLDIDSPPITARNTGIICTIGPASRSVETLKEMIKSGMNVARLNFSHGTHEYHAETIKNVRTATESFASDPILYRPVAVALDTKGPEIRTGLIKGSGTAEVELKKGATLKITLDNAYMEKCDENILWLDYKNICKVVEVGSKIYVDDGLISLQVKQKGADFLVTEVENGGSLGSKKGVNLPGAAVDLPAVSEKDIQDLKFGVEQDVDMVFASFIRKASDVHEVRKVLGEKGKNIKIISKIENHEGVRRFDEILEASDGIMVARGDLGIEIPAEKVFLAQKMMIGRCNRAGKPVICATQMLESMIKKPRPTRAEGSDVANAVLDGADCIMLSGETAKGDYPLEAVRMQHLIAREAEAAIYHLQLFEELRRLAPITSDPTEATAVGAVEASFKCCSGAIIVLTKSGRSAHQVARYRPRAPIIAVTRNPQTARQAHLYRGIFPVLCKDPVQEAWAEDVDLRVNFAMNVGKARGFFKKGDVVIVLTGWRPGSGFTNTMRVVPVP
# [4] = Stability of the compound; assay type: physicochemical
# Pyruvate kinase PKM [5] = biological target: T1, Pyruvate kinase PKM; assay: Activation of PKM2 in human A549 cells using PEP as substrate preincubated for 1 hr followed by substrate addition measured after 1 hr in presence of ADP by Kinase-Glo luminescence assay relative to control; assay type: cell-based
# Target sequence in this assay (P14618 2-531 limits assumed): as the sequence (P14618 2-531 limits assumed) above
# A549 = assay: Growth inhibition of human A549 cells after 72 hrs in presence of serine by CellTiter-Glo luminescent assay; assay type: functional, cell-based
SMILES,AC50 (Pyruvate kinase PKM [1]) [nM],Emax (Pyruvate kinase PKM [2]) [%],AC200 (Pyruvate kinase PKM [1]) [µM],AC50 (Pyruvate kinase PKM [3]) [nM],Stability [4],Activity (Pyruvate kinase PKM [5]) [%],growth inhibition (GI) (A549)
O=S(=O)(c1ccc2c(c1)OCCO2)N1CCN(S(=O)(=O)c2c(F)cccc2F)CC1,150,181,,,,,
Cn1cc(C(=O)c2cccc(Cl)c2Cl)cc1C(N)=O,,198,26,> 100000,,,
Cn1cc(C(=O)c2cccc(Cl)c2Cl)cc1C(=O)NCNC(=O)c1cc(C(=O)c2cccc(Cl)c2Cl)cn1C,,194,,,Unstable,,
Cn1cc(C(=O)c2cccc(Cl)c2Cl)cc1C(=O)NCCNC(=O)c1cc(C(=O)c2cccc(Cl)c2Cl)cn1C,,184,,188,,598,inactive
